Values after ≈ are worked out from the molar mass of the structure shown. Like-named read-outs stand apart in the source and are kept apart here. Bounds are passed on as bounds.

What all share (format): cell-based
The test system of one assay is Phytophthora infestans. The settings on record: Phytin, single compound.
The next assay has as its system Botrytis cinerea. Briefly: Microtest with mixtures of active compounds, grey mold (Botrci). Particulars: single compound.
For the next assay, the system named is Pyricularia oryzae. Particulars: Pyrior, single compound.
A further assay has as its system Septoria tritici. The assay can be described thus: Microtest with mixtures of active compounds, leaf blotch on wheat (Septtr).
Assay [1] has as its system Staphylococcus aureus ATCC 29213. The assay can be described thus: Minimum Inhibitory Concentration (MIC) test, broth microdilution. The settings on record: ATCC 29213 / DSM 2569, IsoSensitest broth, 24 hours at 37°C, no growth (OD smaller than 0.1).
For assay [2], the system named is Pseudomonas aeruginosa ATCC 27853. Described as above. The settings on record: ATCC 27853 / DSM 1117, IsoSensitest broth, 24 hours at 37°C, no growth (OD smaller than 0.1).

On to `Fc1ccc([C@]2(Cn3cncn3)O[C@H]2c2ccccc2Cl)cc1` (racemic) [Epoxiconazole], for which the figures for the Observed efficacy with Phytophthora infestans (0.25 ppm), in the assay on Botrytis cinerea (0.063 ppm) and with Pyricularia oryzae (0.25 ppm) were 11%, 34% and 5%, respectively.

Regarding `Fc1ccc([C@@]2(Cn3ncnc3S)O[C@@H]2c2ccccc2Cl)c(F)c1` (relative stereo) [Azole*, 2-[rel-(2S;3R)-3-(2-chlorophenyl)-2-(2,4-difluorophenyl)-oxiranylmethyl]-2H-[1,2,4]triazole-3-thiol], the Observed efficacy with Phytophthora infestans (4 ppm) turned out to be 20%; in the assay on Botrytis cinerea (1 ppm), 15%; in the assay with Pyricularia oryzae (16 ppm), 65%; in the assay on Septoria tritici (0.25 ppm), 4%; in the assay with Septoria tritici (4 ppm), 40%.

For `Cn1cc(C(=O)Nc2ccccc2-c2cc(F)c(F)c(F)c2)c(C(F)F)n1` [Fluxapyroxad], the Observed efficacy in the assay on Phytophthora infestans (0.063 ppm) came out at 12%; in the assay with Botrytis cinerea (0.016 ppm), 13%.

Regarding `CCn1cc(C(=O)O)c(=O)c2ccc(C)nc21` [Control 3, Nalidixic acid], the minimal inhibitory concentration (MIC) was 64 µg/mL (≈ 276 µM) in assay [1] and 1020 µg/mL (≈ 4410 µM) in assay [2].

Regarding `CC(=O)[O-].CCCCn1cc[n+](CCCC)c1` [C2, 1,3-Dibutylimidazolium acetate], the minimal inhibitory concentration (MIC) in assay [1] is 2050 µg/mL; in assay [2], 4100 µg/mL.

On to `COC(=O)N(OC)c1ccccc1COc1ccn(-c2ccc(Cl)cc2)n1` [Pyraclostrobin], for which the Observed efficacy worked out at 24% with Phytophthora infestans (0.063 ppm); 0% in the assay with Botrytis cinerea (0.016 ppm); 38% with Septoria tritici (Septtr, single compound, 0.001 ppm).

As to `CC1=C(C(=O)O)N2C(=O)[C@@H](NC(=O)[C@H](N)c3ccccc3)[C@H]2SC1` [Control 1, Cephalexine], the MIC in assay [1] is 4 µg/mL (≈ 11.5 µM); in assay [2], above 4100 µg/mL.

The values are drawn from patent EP2688405B1 (priority 2011, dated 2012).
